Several values for one entry are separate records, joined by “and”; a condition that tells them apart may be missing. Equal values may be shown once. Read-outs that look alike come from different tables or passages of the source.
Experiments:
ABCC2 = ABCC2 (Homo sapiens, UniProt Q92887); assay: Uptake of estradiol-17β-glucuronide into ABCC2-containing inside-out vesicles; type: biochemical
[1] = rapidly absorbed from the upper intestine; cited from earlier work
serum cholesterol = conditions: human, in vivo; cited from earlier work
[2] = type: in vivo, human
[3] = Estimated luminal concentration of efavirenz after oral administration; design: species or system human; conditions: after oral administration of 400 mg, dose/250 mL
OATP1B1 = molecular target: T1, OATP1B1 (Homo sapiens, UniProt Q9Y6L6); type: cell-based; conditions: OATP1B1-transfected HEK293 cells, efavirenz 1–1,000 μmol/l
T1 sequence (Q9Y6L6 1-691): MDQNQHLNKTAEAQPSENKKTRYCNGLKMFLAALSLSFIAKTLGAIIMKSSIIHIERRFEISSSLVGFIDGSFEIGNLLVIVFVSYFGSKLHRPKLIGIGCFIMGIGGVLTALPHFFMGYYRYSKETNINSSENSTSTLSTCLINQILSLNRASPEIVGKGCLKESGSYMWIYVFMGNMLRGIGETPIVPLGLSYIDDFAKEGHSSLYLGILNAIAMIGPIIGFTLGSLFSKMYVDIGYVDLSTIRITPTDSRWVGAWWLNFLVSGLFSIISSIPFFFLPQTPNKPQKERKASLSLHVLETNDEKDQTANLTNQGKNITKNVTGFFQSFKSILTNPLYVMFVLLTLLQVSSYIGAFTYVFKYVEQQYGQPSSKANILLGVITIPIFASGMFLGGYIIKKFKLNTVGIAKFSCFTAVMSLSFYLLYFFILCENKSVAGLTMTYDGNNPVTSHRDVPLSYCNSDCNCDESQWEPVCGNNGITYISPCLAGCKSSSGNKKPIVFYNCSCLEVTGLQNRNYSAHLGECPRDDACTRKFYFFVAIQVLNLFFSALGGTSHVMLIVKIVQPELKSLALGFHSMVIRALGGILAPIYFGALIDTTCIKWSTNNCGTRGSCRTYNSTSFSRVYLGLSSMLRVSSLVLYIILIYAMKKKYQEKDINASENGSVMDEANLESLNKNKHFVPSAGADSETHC

ABCB1 = ABCB1 (Homo sapiens, UniProt P08183); assay: Calcein AM accumulation assay in ABCB1-transfected MDCKII cells; type: cell-based
Sequence of ABCB1 (P08183 whole entry): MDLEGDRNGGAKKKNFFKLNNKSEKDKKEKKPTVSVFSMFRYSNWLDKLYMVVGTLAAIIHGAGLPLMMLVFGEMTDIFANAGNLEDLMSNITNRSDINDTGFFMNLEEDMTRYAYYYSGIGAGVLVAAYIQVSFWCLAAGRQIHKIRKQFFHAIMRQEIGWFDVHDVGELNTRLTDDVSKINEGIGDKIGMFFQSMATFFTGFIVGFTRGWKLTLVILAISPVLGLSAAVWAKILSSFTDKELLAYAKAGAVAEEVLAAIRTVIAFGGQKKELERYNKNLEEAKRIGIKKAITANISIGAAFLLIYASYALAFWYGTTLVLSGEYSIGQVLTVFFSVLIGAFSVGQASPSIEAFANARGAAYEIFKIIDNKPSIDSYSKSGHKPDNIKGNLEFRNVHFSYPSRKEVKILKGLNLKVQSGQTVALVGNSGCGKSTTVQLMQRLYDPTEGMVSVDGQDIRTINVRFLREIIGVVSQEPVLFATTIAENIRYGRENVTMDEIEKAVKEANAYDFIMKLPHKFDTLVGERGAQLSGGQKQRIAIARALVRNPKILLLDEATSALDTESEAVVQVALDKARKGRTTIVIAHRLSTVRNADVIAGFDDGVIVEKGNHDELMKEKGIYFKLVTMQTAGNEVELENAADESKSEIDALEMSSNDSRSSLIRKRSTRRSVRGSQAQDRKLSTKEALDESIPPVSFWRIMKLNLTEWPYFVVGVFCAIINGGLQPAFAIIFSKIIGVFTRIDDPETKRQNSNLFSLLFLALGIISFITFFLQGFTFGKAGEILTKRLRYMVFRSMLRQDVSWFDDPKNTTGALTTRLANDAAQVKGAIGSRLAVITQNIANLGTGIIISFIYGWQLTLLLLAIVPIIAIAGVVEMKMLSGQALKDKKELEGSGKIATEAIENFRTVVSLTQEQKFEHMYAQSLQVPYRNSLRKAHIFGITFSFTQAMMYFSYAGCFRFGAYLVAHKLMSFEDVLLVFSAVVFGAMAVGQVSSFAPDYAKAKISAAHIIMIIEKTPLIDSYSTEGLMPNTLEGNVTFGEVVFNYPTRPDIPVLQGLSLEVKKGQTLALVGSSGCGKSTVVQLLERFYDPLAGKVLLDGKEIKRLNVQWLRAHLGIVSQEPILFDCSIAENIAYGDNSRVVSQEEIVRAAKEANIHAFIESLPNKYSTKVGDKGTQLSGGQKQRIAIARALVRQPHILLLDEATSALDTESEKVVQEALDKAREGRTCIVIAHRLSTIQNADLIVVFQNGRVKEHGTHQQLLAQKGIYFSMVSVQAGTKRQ

serum sterols = assay: Serum sterol concentrations; type: in vivo, human
[4] = type: in vivo, human; conditions: for AUC(0-t) / Cmax / AUC0–6 h / AUC0–24 h: serum; for AUC(0-t) / Cmax / CLR (renal clearance) / AUC0–6 h / AUC0–24 h: mean ± SD
[5] = 400 mg efavirenz single dose, second value of the pair (taken as with ezetimibe)
[6] = chronic administration of 10 mg ezetimibe, 12 healthy subjects
[7] = ezetimibe + efavirenz multiple dose vs ezetimibe alone
[8] = ezetimibe + efavirenz single dose vs ezetimibe alone
[9] = steady state 10 mg ezetimibe + 400 mg efavirenz multiple dose
[10] = steady state 10 mg ezetimibe + 400 mg efavirenz single dose
[11] = steady state, 10 mg ezetimibe alone

Sequence of ABCC2 (Q92887 whole entry): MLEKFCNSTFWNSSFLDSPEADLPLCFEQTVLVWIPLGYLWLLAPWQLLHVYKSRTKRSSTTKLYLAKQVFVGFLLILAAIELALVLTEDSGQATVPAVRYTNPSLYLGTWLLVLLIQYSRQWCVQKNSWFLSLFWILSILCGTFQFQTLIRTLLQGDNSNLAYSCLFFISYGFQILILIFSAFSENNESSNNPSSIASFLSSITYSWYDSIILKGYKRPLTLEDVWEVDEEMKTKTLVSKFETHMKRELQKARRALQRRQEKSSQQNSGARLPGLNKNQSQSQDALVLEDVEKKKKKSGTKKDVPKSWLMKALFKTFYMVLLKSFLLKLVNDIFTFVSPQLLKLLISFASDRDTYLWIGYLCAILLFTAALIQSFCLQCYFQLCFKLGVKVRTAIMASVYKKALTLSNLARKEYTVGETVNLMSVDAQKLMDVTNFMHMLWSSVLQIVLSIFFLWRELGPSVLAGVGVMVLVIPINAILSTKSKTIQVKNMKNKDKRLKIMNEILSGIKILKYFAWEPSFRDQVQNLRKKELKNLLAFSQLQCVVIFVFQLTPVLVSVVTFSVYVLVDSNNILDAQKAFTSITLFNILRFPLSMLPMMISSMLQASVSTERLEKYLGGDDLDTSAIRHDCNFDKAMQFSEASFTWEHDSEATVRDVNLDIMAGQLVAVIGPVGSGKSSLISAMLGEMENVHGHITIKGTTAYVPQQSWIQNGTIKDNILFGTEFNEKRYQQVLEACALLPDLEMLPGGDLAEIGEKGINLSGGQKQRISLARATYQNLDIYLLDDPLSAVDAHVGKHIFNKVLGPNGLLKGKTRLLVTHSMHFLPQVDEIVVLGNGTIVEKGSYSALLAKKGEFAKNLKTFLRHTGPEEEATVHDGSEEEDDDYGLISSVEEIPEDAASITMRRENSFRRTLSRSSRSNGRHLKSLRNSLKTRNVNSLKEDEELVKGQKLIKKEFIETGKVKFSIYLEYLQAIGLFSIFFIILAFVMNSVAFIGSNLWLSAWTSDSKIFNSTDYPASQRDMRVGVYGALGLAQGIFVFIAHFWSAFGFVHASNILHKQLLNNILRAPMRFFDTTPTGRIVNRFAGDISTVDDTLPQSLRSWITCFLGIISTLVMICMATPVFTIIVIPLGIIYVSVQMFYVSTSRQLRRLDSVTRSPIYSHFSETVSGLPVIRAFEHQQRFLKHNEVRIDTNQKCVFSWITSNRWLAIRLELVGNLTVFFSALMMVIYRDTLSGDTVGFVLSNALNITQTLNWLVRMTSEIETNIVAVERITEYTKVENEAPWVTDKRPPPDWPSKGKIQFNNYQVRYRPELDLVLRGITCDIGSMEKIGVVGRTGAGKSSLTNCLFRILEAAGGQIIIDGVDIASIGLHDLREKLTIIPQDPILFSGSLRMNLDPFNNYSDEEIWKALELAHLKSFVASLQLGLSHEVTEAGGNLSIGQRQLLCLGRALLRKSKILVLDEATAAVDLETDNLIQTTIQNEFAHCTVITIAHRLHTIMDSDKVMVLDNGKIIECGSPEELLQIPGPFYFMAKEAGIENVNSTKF

For `O=C1Nc2ccc(Cl)cc2[C@@](C#CC2CC2)(C(F)(F)F)O1` [Efavirenz, efavirenz], the IC50 (ABCC2) is listed as 60.3 µM, the Tmax [1] is listed as 2 to 3 h and the “HIV-infected patients with increased serum cholesterol levels” value (serum cholesterol) is listed as ~50%. The cumulative renal excretion ([2]; 400 mg efavirenz single dose, first value of the pair (taken as alone)) was 83.4 ± 26.9 µg, the cumulative renal excretion [2, 5] was 88.4 ± 18.8 µg and the renal clearance [2, 5] was 0.06 ± 0.03 mL/min. For the same compound, the AUC(0-inf) ([2]; human, serum, oral, 400 mg) was 27000 ± 12200 ng·h/mL, the CL renal ([2]; human, urine and plasma, oral, 400 mg) was 0.06 ± 0.03 mL/min and the estimated luminal concentration [3] was ~ 5 mmol/l and 5 mmol/l. For the same compound, the “influence on OATP1B1-mediated uptake of bromosulfophthalein” value (OATP1B1) was “no influence” and the “concentration inhibiting ABCB1 activity to the same extent as PSC833 (10 μmol/l)” value (ABCB1) was 316 µM.

In the case of `O=C1[C@H](CC[C@H](O)c2ccc(F)cc2)[C@@H](c2ccc(O)cc2)N1c1ccc(F)cc1` [Ezetimibe, ezetimibe], the “lathosterol/cholesterol ratio (marker for endogenous cholesterol synthesis)” value (serum sterols; after treatment with ezetimibe) is reported as “significantly increased”, the “reduction of serum concentration of campesterol” value (serum sterols; [6]) is reported as ~ 40% and the “reduction of serum concentration of sitosterol” value (serum sterols; [6]) is reported as ~ 40%. For the same compound, the “reduction of total serum cholesterol” value (serum sterols; [6]) was 10–15%, the “AUC0–6 h Ratio (90% CI)” value [4, 7] was 1.052 (0.880, 1.256) and the “AUC0–24 h Ratio (90% CI)” value [4, 7] was 0.975 (0.850, 1.118). The “Cmax Ratio (90% CI)” value [4, 7] was 0.951 (0.730, 1.240), the “AUC0–6 h Ratio (90% CI)” value [4, 8] was 1.346 (1.201, 1.508) and the “AUC0–24 h Ratio (90% CI)” value [4, 8] was 1.146 (1.034, 1.270). The “Cmax Ratio (90% CI)” value [4, 8] was 1.194 (1.031, 1.382), the AUC(0-t) ([4]; human, oral, 10 mg, AUC0–6 h, steady state, 10 mg ezetimibe alone) was 13.6 ± 5.5 ng·h/mL and the AUC(0-t) ([4]; human, oral, 10 mg, AUC0–24 h, steady state, 10 mg ezetimibe alone, 12 healthy subjects) was 51.9 ± 21.7 ng·h/mL. For the same compound, the Cmax ([4]; human, oral, 10 mg, Cmax, steady state, 10 mg ezetimibe alone) was 4.82 ± 2.74 ng/mL, the “higher AUC0–6 h” value ([4]; with single-dose efavirenz vs ezetimibe alone, P = 0.005) was 1.4 fold and the “higher maximum plasma concentration (Cmax)” value ([4]; with single-dose efavirenz vs ezetimibe alone, P = 0.049) was 1.2 fold.

For `O=C(O)[C@H]1O[C@@H](Oc2ccc([C@@H]3[C@@H](CC[C@H](O)c4ccc(F)cc4)C(=O)N3c3ccc(F)cc3)cc2)[C@H](O)[C@@H](O)[C@@H]1O` [Ezetimibe-glucuronide, ezetimibe-glucuronide], the “CLR (renal clearance)” value ([4]; 10 mg ezetimibe + 400 mg efavirenz multiple dose) was 21.7 ± 5.91 mL/min, the “CLR (renal clearance)” value ([4]; 10 mg ezetimibe + 400 mg efavirenz single dose) was 23.3 ± 7.61 mL/min and the “CLR (renal clearance)” value ([4]; 10 mg ezetimibe alone, steady state) was 24.7 ± 8.77 mL/min. The decrease of exposure ([4]; acute and chronic comedication with efavirenz) was 12–30%, the “AUC0–6 h Ratio (90% CI)” value [4, 7] was 0.691 (0.592, 0.806) and the “AUC0–24 h Ratio (90% CI)” value [4, 7] was 0.700 (0.608, 0.806). For the same compound, the “Cmax Ratio (90% CI)” value [4, 7] was 0.606 (0.469, 0.783), the “AUC0–6 h Ratio (90% CI)” value [4, 8] was 0.872 (0.774, 0.982) and the “AUC0–24 h Ratio (90% CI)” value [4, 8] was 0.885 (0.809, 0.968). The “Cmax Ratio (90% CI)” value [4, 8] was 0.776 (0.625, 0.963), the “reduction of urinary excretion” value ([4]; multiple doses of efavirenz, unchanged renal clearance, P = 0.003) was 35% and the “diminished serum AUC” value ([4]; pretreatment with multiple doses of efavirenz, P = 0.005) was ~30%. The “diminished serum Cmax” value ([4]; pretreatment with multiple doses of efavirenz, P = 0.012) was “about 43%”, the “AUC0–6 h” value [4, 9] was 141 ± 58 ng·h/mL and the “AUC0–24 h” value [4, 9] was 325 ± 152 ng·h/mL. The Cmax [4, 9] was 45.3 ± 14.6 ng/mL, the “AUC0–6 h” value [4, 10] was 182 ± 87 ng·h/mL and the “AUC0–24 h” value [4, 10] was 411 ± 195 ng·h/mL. The Cmax [4, 10] was 60.9 ± 29.5 ng/mL, the “AUC0–24 h” value ([4]; steady state, 10 mg ezetimibe alone, 12 healthy subjects) was 466 ± 223 ng·h/mL and the “AUC0–6 h” value [4, 11] was 205 ± 90 ng·h/mL. For the same compound, the Cmax [4, 11] was 78.9 ± 43.1 ng/mL.

Reference: publication PMC3667671 (Clinical pharmacology and therapeutics, 2012)
